According to patent publication US20150094474A1, “AGRICULTURAL CHEMICALS” (Redx Pharma Ltd., priority 2012, published 2015):

How the values were obtained:
[1] = tested on: barley; assay: Herbicidal bioassay, barley (% necrosis); format: in vivo
Method: (§1) A laboratory bioassay was conducted to screen ten compounds (Fluazifop (25); Ethyl fluazifop (62); five fluazifop analogues: 27, 28, 63, 64 and 65; mesofulfuron (6); and two mesosulfuron analogues: 8 and 61. for activity against Lolium perenne, barley, peas and Chinese cabbage. Compounds were diluted in DMSO. Controls were performed using both DMSO and water.
(§2) Plants were obtained as seeds and were grown to the 2-4 true leaf stage. Plants were grown individually in seed trays. Each plant (in an approximately 3 cm diameter plug) was then detached from the tray for spraying. Environmental conditions were closely monitored and recorded and were within the optimal range of the target species.
(§3) The compounds were screened at a range of six concentrations, eg. 0.05%, 0.01%, 0.005%, 0.001%, 0.0005% and 0.0001%. Treatments will be applied directly onto the plants, using a potter tower.
(§4) One plant of each type will be sprayed using a potter tower. The 4 different types of weeds will be placed in a 10 cm diameter area underneath the potter sprayer and sprayed simultaneously. The growth of the plants and any Phytotoxicity effects will then be assessed at specified growth intervals, according to EPPO guideline PP1/135. Five replicates will be performed for each treatment, for each species.

[2] = tested on: peas; assay: Herbicidal bioassay, peas (% necrosis); format: in vivo
Method: as §1, §2, §3, §4

CC(Oc1ccc(Oc2ccc(C(F)(F)F)cn2)cc1)C(=O)O (stereo not drawn) [Compound 25, Fluazifop, reference compound]
B (50%-80% necrosis): Sum of % necrosis in barley ([1]; Dose 0.0005, Day 14) | Sum of % necrosis in Peas ([2]; Dose 0.00001, Day 10) | Sum of % necrosis in Peas ([2]; Dose 0.00001, Day 14)
C (less than 50% necrosis): Sum of % necrosis in barley ([1]; Dose 0.000001, Day 0) | Sum of % necrosis in barley ([1]; Dose 0.000001, Day 1) | Sum of % necrosis in barley ([1]; Dose 0.000001, Day 3) | Sum of % necrosis in barley ([1]; Dose 0.000001, Day 7) | Sum of % necrosis in barley ([1]; Dose 0.000001, Day 10) | Sum of % necrosis in barley ([1]; Dose 0.000001, Day 14) | Sum of % necrosis in barley ([1]; Dose 0.000001, Day 21) | Sum of % necrosis in barley ([1]; Dose 0.000005, Day 0) | Sum of % necrosis in barley ([1]; Dose 0.000005, Day 1) | Sum of % necrosis in barley ([1]; Dose 0.000005, Day 3) | Sum of % necrosis in barley ([1]; Dose 0.000005, Day 7) | Sum of % necrosis in barley ([1]; Dose 0.000005, Day 10) | Sum of % necrosis in barley ([1]; Dose 0.000005, Day 14) | Sum of % necrosis in barley ([1]; Dose 0.000005, Day 21) | Sum of % necrosis in barley ([1]; Dose 0.00001, Day 0) | Sum of % necrosis in barley ([1]; Dose 0.00001, Day 1) | Sum of % necrosis in barley ([1]; Dose 0.00001, Day 3) | Sum of % necrosis in barley ([1]; Dose 0.00001, Day 7) | Sum of % necrosis in barley ([1]; Dose 0.00001, Day 10) | Sum of % necrosis in barley ([1]; Dose 0.00001, Day 14) | Sum of % necrosis in barley ([1]; Dose 0.00001, Day 21) | Sum of % necrosis in barley ([1]; Dose 0.00005, Day 0) | Sum of % necrosis in barley ([1]; Dose 0.00005, Day 1) | Sum of % necrosis in barley ([1]; Dose 0.00005, Day 3) | Sum of % necrosis in barley ([1]; Dose 0.00005, Day 7) | Sum of % necrosis in barley ([1]; Dose 0.00005, Day 10) | Sum of % necrosis in barley ([1]; Dose 0.00005, Day 14) | Sum of % necrosis in barley ([1]; Dose 0.0001, Day 0) | Sum of % necrosis in barley ([1]; Dose 0.0001, Day 1) | Sum of % necrosis in barley ([1]; Dose 0.0001, Day 3) | Sum of % necrosis in barley ([1]; Dose 0.0001, Day 7) | Sum of % necrosis in barley ([1]; Dose 0.0001, Day 10) | Sum of % necrosis in barley ([1]; Dose 0.0001, Day 14) | Sum of % necrosis in barley ([1]; Dose 0.0005, Day 0) | Sum of % necrosis in barley ([1]; Dose 0.0005, Day 1) | Sum of % necrosis in barley ([1]; Dose 0.0005, Day 3) | Sum of % necrosis in barley ([1]; Dose 0.0005, Day 7) | Sum of % necrosis in barley ([1]; Dose 0.0005, Day 10) | Sum of % necrosis in Peas ([2]; Dose 0.000001, Day 0) | Sum of % necrosis in Peas ([2]; Dose 0.000001, Day 1) | Sum of % necrosis in Peas ([2]; Dose 0.000001, Day 3) | Sum of % necrosis in Peas ([2]; Dose 0.000001, Day 7) | Sum of % necrosis in Peas ([2]; Dose 0.000001, Day 10) | Sum of % necrosis in Peas ([2]; Dose 0.000001, Day 14) | Sum of % necrosis in Peas ([2]; Dose 0.000001, Day 21) | Sum of % necrosis in Peas ([2]; Dose 0.000005, Day 0) | Sum of % necrosis in Peas ([2]; Dose 0.000005, Day 1) | Sum of % necrosis in Peas ([2]; Dose 0.000005, Day 3) | Sum of % necrosis in Peas ([2]; Dose 0.000005, Day 7) | Sum of % necrosis in Peas ([2]; Dose 0.000005, Day 10) | Sum of % necrosis in Peas ([2]; Dose 0.000005, Day 14) | Sum of % necrosis in Peas ([2]; Dose 0.000005, Day 21) | Sum of % necrosis in Peas ([2]; Dose 0.00001, Day 0) | Sum of % necrosis in Peas ([2]; Dose 0.00001, Day 1) | Sum of % necrosis in Peas ([2]; Dose 0.00001, Day 3) | Sum of % necrosis in Peas ([2]; Dose 0.00001, Day 7) | Sum of % necrosis in Peas ([2]; Dose 0.00005, Day 0) | Sum of % necrosis in Peas ([2]; Dose 0.00005, Day 1) | Sum of % necrosis in Peas ([2]; Dose 0.00005, Day 3) | Sum of % necrosis in Peas ([2]; Dose 0.00005, Day 7) | Sum of % necrosis in Peas ([2]; Dose 0.00005, Day 10) | Sum of % necrosis in Peas ([2]; Dose 0.00005, Day 14) | Sum of % necrosis in Peas ([2]; Dose 0.0001, Day 0) | Sum of % necrosis in Peas ([2]; Dose 0.0001, Day 1) | Sum of % necrosis in Peas ([2]; Dose 0.0001, Day 3) | Sum of % necrosis in Peas ([2]; Dose 0.0001, Day 7) | Sum of % necrosis in Peas ([2]; Dose 0.0001, Day 10) | Sum of % necrosis in Peas ([2]; Dose 0.0001, Day 14) | Sum of % necrosis in Peas ([2]; Dose 0.0005, Day 0) | Sum of % necrosis in Peas ([2]; Dose 0.0005, Day 1) | Sum of % necrosis in Peas ([2]; Dose 0.0005, Day 3) | Sum of % necrosis in Peas ([2]; Dose 0.0005, Day 7) | Sum of % necrosis in Peas ([2]; Dose 0.0005, Day 10) | Sum of % necrosis in Peas ([2]; Dose 0.0005, Day 14)
A (over 80% necrosis): Sum of % necrosis in barley ([1]; Dose 0.00005, Day 21) | Sum of % necrosis in barley ([1]; Dose 0.0001, Day 21) | Sum of % necrosis in barley ([1]; Dose 0.0005, Day 21) | Sum of % necrosis in Peas ([2]; Dose 0.00001, Day 21) | Sum of % necrosis in Peas ([2]; Dose 0.00005, Day 21) | Sum of % necrosis in Peas ([2]; Dose 0.0001, Day 21) | Sum of % necrosis in Peas ([2]; Dose 0.0005, Day 21)
